Experimental data taken from the NIST ThermoML archive (doi:10.1021/acs.jced.7b01021).
Numbers after ± are expanded uncertainties. Blank lines part the entries; values can stand above or below the compound they belong to.

Conditions: Liquid, Ebulliometric method (Recirculating still)

vapor or sublimation pressure (371.05 K): 101.33 ± 0.71 kPa
SMILES: CC(=O)OC(C)(C)C [1,1-dimethylethyl ethanoate]

vapor or sublimation pressure (355.59 K): 101.33 ± 0.71 kPa
SMILES: CC(C)(C)O [2-methylpropan-2-ol]

SMILES: Clc1ccccc1 [chlorobenzene]
vapor or sublimation pressure (404.8 K): 101.33 ± 0.71 kPa
